Where “and” joins values, the source holds several entries; their conditions need not be identical. Identical values can stand only once. Counter-ions that a name gives are not always drawn. Like-named read-outs stand apart in the source and are kept apart here.
Columns and labels:
[1] = in vivo, cited from earlier work
[2] = oral administration; cited from earlier work
[3] = tramadol […] [100 mg] p.o., single dose; cited from earlier work
[4] = system: patients undergoing abdominal surgery; details: both groups; cited from earlier work
Beagle dogs = details: in vivo
postoperative patients = details: cited from earlier work
[5] = cited from earlier work
mice and rats = details: cited from earlier work
clinical = details: human, in vivo
Excerpt: The secondary objectives of the study are to assess the safety and tolerability of the study medication.
The study was an open-label, single-period, randomized, parallel treatment design. The subjects underwent screening within 4 weeks of dosing. A total of 32 subjects were selected for participation. All subjects entered the clinical research unit on Day −1 prior to dosing. A blood sample for pharmacogenomic analysis was obtained at Day 1. This sample was to be used to determine the CYP2D6 phenotype if significant variability among subjects is observed in the pharmacokinetic values. Subjects received study drug every 6 hours beginning on the morning of Day 1 and ending on the morning of Day 3. The first dose on Day 1 and the last dose on Day 3 were administered after a minimum 10 hour fast.
No food was administered until 4 hours after dosing on Day 3. Standardized meals were provided. Subjects remained confined to the clinical research unit until after completion of the 24 hour post-dose blood sampling and safety assessments (Day 4). […] Study drug tolerability was evaluated by Investigator assessment and evaluation of adverse event frequency and severity, including irritation at the injection site. Subjects who were taking SSRIs, tricyclic antidepressants, antipsychotic agents and MAO inhibitors were excluded from the study.
The treatments are defined in Table 3 below. Each subject received only one of the designated treatments.
The subjects were randomized to receive one of the 4 treatment regimens as outlined above. Subjects were administered Treatments A or C by intravenous administration or Ultram® (Treatment B or D) orally beginning in the morning of Day 1 at approximately 6:00 AM to 8:00 AM. All subjects fasted for at least 10 hours prior to the first dose of study drug. […] Water was allowed ad libitum; however, water was restricted from 1 hour prior to dosing to 1 hour after dosing on Day 3. Following the last dose in the morning of Day 3, no food was allowed until after the 4 hour blood sample had been obtained.
FIG. 1 is a graphical representation of the plasma concentration curve for Treatments A-D after the administration of dose #9.

in vivo = details: beagle, dog; for AUC(0-t) / Cmax: 26 mg/kg/day
rats and dogs = details: repeat-dose; cited from earlier work
[6] = in vitro and in vivo; cited from earlier work
[7] = system: experienced opioid abusers; details: cited from earlier work

For `COc1cccc([C@]2(O)CCCC[C@H]2CN(C)C)c1` (racemic) [Tramadol, (±)cis-2-[(dimethylamino)methyl]-1-(3-methoxyphenyl) cyclohexanol hydrochloride], the half-life ([1]; iv) is listed as 5.6 h, the absolute bioavailability ([1]; po) is listed as 90-100% and the “increase of elimination half-life” value [1] is listed as “approximately 2 fold”. For the same molecule, the “fertility and teratogenic effects” value [2] was “no safety concerns with respect to fertility or teratogenic effects”, the AUC [3] was 2177 ± 722 ng·h/mL and the Cmax [3] was 274 ± 75 ng/mL. The Tmax [3] was 1.6 ± 0.5 h, the t1/2 [3] was 5.9 ± 0.7 h and the “patients reporting adverse events” value [4] was 25%. For the same molecule, the adverse observations (Beagle dogs; dog) was “convulsions for two Beagle dogs”, the “toxicity in humans, conclusion from dog data” value (Beagle dogs) was “not toxic” and the serious adverse effects (postoperative patients; loading doses up to 150 mg IV (Silvasti 2000)) was “not associated with any serious adverse effects”. The serious adverse effects (postoperative patients; mean cumulative doses 449 to 868.3 mg over 24, 36 and 48 h) was “no serious adverse effects were observed”, the “estimated absorption of the oral dose” value ([5]; 100 mg PO) was 86-88% and the AUC0-24 h ([5]; 100 mg i.v.) was 3709 ± 977 ng·h/mL. For the same molecule, the Vd ([5]; 100 mg i.v.) was 203 L, the t1/2 ([5]; 100 mg i.v.) was 5.2 h and the “CL/F (total clearance)” value ([5]; 100 mg i.v., hydrochloride) was 467 ± 124 mL/min. For the same molecule, the “CL/F (total clearance)” value ([5]; 100 mg i.v., listed as tramadol, hydrochloride) was 710 ± 174 mL/min, the “time to peak serum concentration (tmax)” value ([5]; 100 mg oral dosing) was “approximately 2 hours” and the AUC0-24 h ([5]; 100 mg p.o.) was 2488 ± 774 ng·h/mL. For the same molecule, the Cmax ([5]; 100 mg p.o.) was 280 ± 49 ng/mL, the Vd ([5]; 100 mg p.o.) was 306 L and the t1/2 ([5]; 100 mg p.o.) was 5.1 h. The “CL/F (total clearance)” value ([5]; 100 mg p.o., hydrochloride) was 710 ± 174 mL/min, the “CL/F (total clearance)” value ([5]; 100 mg p.o., listed as tramadol, hydrochloride) was 467 ± 124 mL/min and the “absolute bioavailability of the oral dose” value ([5]; 100 mg, comparison of AUC values, hydrochloride) was 68±13% and 68%. For the same molecule, the “distribution half-life in the initial phase” value ([5]; after IV administration) was 0.31 ± 0.17 h, the “half-life of slower distribution phase” value ([5]; after IV administration) was 1.7 ± 0.4 h and the first pass metabolism ([5]; estimated) was roughly 20%. The carcinogenic potential (mice and rats) was “no evidence of carcinogenic potential”, the “Bioavailability, AUC6” value (clinical; 50 mg) was 85.2% and the “Bioavailability, AUCt” value (clinical; 50 mg) was 102.0%. The “Bioavailability, AUC∞” value (clinical; 50 mg) was 103.1%, the “Bioavailability, Cmax” value (clinical; 50 mg) was 64.3% and the “Bioavailability, T1/2” value (clinical; 50 mg) was 109.6%. The bioavailability (clinical; 50 mg) was 91.2%, the “Bioavailability, AUC6” value (clinical; 100 mg) was 70.3% and the “Bioavailability, AUCt” value (clinical; 100 mg) was 74.8%. For the same molecule, the “Bioavailability, AUC∞” value (clinical; 100 mg) was 74.6%, the “Bioavailability, Cmax” value (clinical; 100 mg) was 54.9% and the “Bioavailability, T1/2” value (clinical; 100 mg) was 88.0%. The bioavailability (clinical; 100 mg) was 114%, the dose proportionality (clinical; iv) was “substantially dose proportional” and the AUC (clinical; iv, 50 mg) was 1960 ± 450 ng·h/mL. The AUC(0-inf) (clinical; iv, 50 mg) was 4040 ± 1060 ng·h/mL, the AUC(0-t) (clinical; iv, 50 mg) was 4010 ± 1040 ng·h/mL and the half-life (clinical; iv, 50 mg) was 6.61 ± 0.4 h. The Cmax (clinical; iv, 50 mg) was roughly 541 ng/mL, the Tmax (clinical; iv, 50 mg) was roughly 0.375 h and the AUC (clinical; iv, 100 mg) was 4730 ± 1240 ng·h/mL. The AUC(0-inf) (clinical; iv, 100 mg) was 11400 ± 4540 ng·h/mL, the AUC(0-t) (clinical; iv, 100 mg) was 11200 ± 4270 ng·h/mL and the half-life (clinical; iv, 100 mg) was 7.89 ± 1.54 h. The Cmax (clinical; iv, 100 mg) was roughly 1250 ng/mL, the Tmax (clinical; iv, 100 mg) was roughly 0.406 h and the “Dose Proportionality Ratio, T1/2” value (clinical; po) was 0.945. The AUC (clinical; po, 50 mg) was 1730 ± 625 ng·h/mL, the AUC(0-inf) (clinical; po, 50 mg) was 4450 ± 2110 ng·h/mL and the AUC(0-t) (clinical; po, 50 mg) was 4360 ± 2030 ng·h/mL. For the same molecule, the half-life (clinical; po, 50 mg) was 7.39 ± 1.72 h, the Cmax (clinical; po, 50 mg) was 355 ± 121 ng/mL and the Tmax (clinical; po, 50 mg) was 1.88 ± 0.78 h. For the same molecule, the AUC (clinical; po, 100 mg) was 3360 ± 1010 ng·h/mL, the AUC(0-inf) (clinical; po, 100 mg) was 8850 ± 4570 ng·h/mL and the AUC(0-t) (clinical; po, 100 mg) was 8660 ± 4260 ng·h/mL. The half-life (clinical; po, 100 mg) was 7.05 ± 1.97 h, the Cmax (clinical; po, 100 mg) was 703 ± 210 ng/mL and the Tmax (clinical; po, 100 mg) was 2.32 ± 1.35 h. It also gave an NOAEL (in vivo; both, 6.5 mg/kg) of 26 mg/kg/day, an AUC(0-t) (in vivo; female) of 1520 ng·h/mL and a Cmax (in vivo; female) of 1530 ng/mL. For the same molecule, the AUC(0-t) (in vivo; male) was 1210 ng·h/mL, the Cmax (in vivo; male) was 1280 ng/mL and the “doses with behavioral/clinical signs and convulsions” value (rats and dogs) was no less than 25 mg/kg/day. For the same molecule, the genotoxic potential [6] was “no evidence of genotoxic potential”, the seizure ([7]; 200 mg IV administered over 5 minutes) was “No seizures were observed” and the seizure ([7]; 300 mg IV delivered over 2.5 minutes) was “seizure was observed”. For the same molecule, the seizure ([7]; 700 mg IV administered over 1 minute) was “seizure was observed”, the “ratings of feel drug effect compared to placebo” value ([7]; IV over 5 minutes) was “significantly increased ratings” and the “ratings of liking / ARCI-MBG scale” value ([7]; tramadol 100 and 200 mg IV, morphine 10 and 20 mg IV, over 5 minutes) was “neither dose of tramadol increased ratings”.

From patent publication US10406122B2 (priority 2011, dated 2019)
